Data taken from patent US10913727B2, “Modulators of the integrated stress pathway” (Calico Life Sciences LLC, priority 2016, dated 2021).

Tested on: HEK293T cells carrying the ATF4 luciferase reporter
Assay: ATF4-Luc assay, in vitro model of Vanishing Cell White Matter Disease (VWMD)
Type: cell-based
Details: Homo sapiens, HEK-293T, 1 μg/mL tunicamycin, 7 hours, One Glo luminescence
In short: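 Compound at 200 nM and tunicamycin at 1 μg/mL were given together for 7 h to HEK293T cells stably transduced with an ATF4 5′-UTR-driven firefly luciferase reporter. Read-out by luminescence, reported as EC50.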

Cc1cccnc1C(=O)NC12CC(NC(=O)COc3ccc(Cl)c(F)c3)(C1)C2 [Compound 368, N-{3-[2-(4-chloro-3-fluorophenoxy)acetamido]bicyclo[1.1.1]pentan-1-yl}-3-methylpyridine-2-carboxamide]
EC50: 250 to 1000 nM

O=C(COc1ccc(Cl)c(F)c1)NC12CC(Nc3nc4cc(Cl)ccc4o3)(C1)C2 [Compound 369, N-{3-[(5-chloro-1,3-benzoxazol-2-yl)amino]bicyclo[1.1.1]pentan-1-yl}-2-(4-chloro-3-fluorophenoxy)acetamide]
EC50: 1000 to 2000 nM

O=C(COc1ccc(Cl)c(F)c1)NC12CC(Nc3nccc(-c4ccc(Cl)cc4)n3)(C1)C2 [Compound 370, 2-(4-chloro-3-fluorophenoxy)-N-(3-{[4-(4-chlorophenyl)pyrimidin-2-yl]amino}bicyclo[1.1.1]pentan-1-yl)acetamide]
EC50: < 50 nM

N#Cc1ccc(C(=O)NC23CC(NC(=O)COc4ccc(Cl)c(F)c4)(C2)C3)cc1F [Compound 371, N-{3-[2-(4-chloro-3-fluorophenoxy)acetamido]bicyclo[1.1.1]pentan-1-yl}-4-cyano-3-fluorobenzamide]
EC50: 50 to 250 nM

O=C(COc1ccc(Cl)c(F)c1)NC12CCC(NC(=O)c3ccc(C(F)(F)F)nc3)(CC1)C(F)C2 (centres unmarked) [Compound 372, N-{4-[2-(4-chloro-3-fluorophenoxy)acetamido]-2-fluorobicyclo[2.2.2]octan-1-yl}-6-(trifluoromethyl)pyridine-3-carboxamide]
EC50: 250 to 1000 nM

O=C(COc1ccc(Cl)c(F)c1)NC12CCC(NC(=O)c3cnc(C(F)F)cn3)(CC1)C(F)C2 (centres unmarked) [Compound 373, N-{4-[2-(4-chloro-3-fluorophenoxy)acetamido]-2-fluorobicyclo[2.2.2]octan-1-yl}-5-(difluoromethyl)pyrazine-2-carboxamide]
EC50: 250 to 1000 nM

Cc1cc(C(=O)NC23CCC(NC(=O)COc4ccc(Cl)c(F)c4)(CC2)CC3F)on1 (centres unmarked) [Compound 374, N-{4-[2-(4-chloro-3-fluorophenoxy)acetamido]-2-fluorobicyclo[2.2.2]octan-1-yl}-3-methyl-1,2-oxazole-5-carboxamide]
EC50: > 2000 nM

Cc1noc(C(=O)NC23CC(NC(=O)COc4ccc(Cl)c(F)c4)(C2)C3)n1 [Compound 375, N-{3-[2-(4-chloro-3-fluorophenoxy)acetamido]bicyclo[1.1.1]pentan-1-yl}-3-methyl-1,2,4-oxadiazole-5-carboxamide]
EC50: 50 to 250 nM

O=C(COc1ccc2c(c1)OC(F)(F)O2)NC12CC(NC(=O)c3cnc(C(F)F)cn3)(C1)C2 [Compound 376, N-(3-{2-[(2,2-difluoro-2H-1,3-benzodioxol-5-yl)oxy]acetamido}bicyclo[1.1.1]pentan-1-yl)-5-(difluoromethyl)pyrazine-2-carboxamide]
EC50: 50 to 250 nM

Cc1cc(C(=O)NC23CC(NC(=O)COc4ccc5c(c4)OC(F)(F)O5)(C2)C3)on1 [Compound 377, N-(3-{2-[(2,2-difluoro-2H-1,3-benzodioxol-5-yl)oxy]acetamido}bicyclo[1.1.1]pentan-1-yl)-3-methyl-1,2-oxazole-5-carboxamide]
EC50: 250 to 1000 nM

O=C(COc1ccc2c(c1)OC(F)(F)O2)NC12CC(NC(=O)c3ccc(OC(F)(F)F)cn3)(C1)C2 [Compound 378, N-(3-{2-[(2,2-difluoro-2H-1,3-benzodioxol-5-yl)oxy]acetamido}bicyclo[1.1.1]pentan-1-yl)-5-(trifluoromethoxy)pyridine-2-carboxamide]
EC50: < 50 nM

O=C(COc1ccc2c(c1)OC(F)(F)O2)NC12CC(NC(=O)c3ccc(OC(F)(F)F)nc3)(C1)C2 [Compound 379, N-(3-{2-[(2,2-difluoro-2H-1,3-benzodioxol-5-yl)oxy]acetamido}bicyclo[1.1.1]pentan-1-yl)-6-(trifluoromethoxy)pyridine-3-carboxamide]
EC50: 50 to 250 nM

O=C(COc1ccc(Cl)c(F)c1)NC12CC(NC(=O)c3cc(C(F)(F)F)no3)(C1)C2 [Compound 380, N-{3-[2-(4-chloro-3-fluorophenoxy)acetamido]bicyclo[1.1.1]pentan-1-yl}-3-(trifluoromethyl)-1,2-oxazole-5-carboxamide]
EC50: 250 to 1000 nM

Cn1cc(-c2ccnc(NC34CC(NC(=O)COc5ccc(Cl)c(F)c5)(C3)C4)n2)cn1 [Compound 381, 2-(4-chloro-3-fluorophenoxy)-N-(3-{[4-(1-methyl-1H-pyrazol-4-yl)pyrimidin-2-yl]amino}bicyclo[1.1.1]pentan-1-yl)acetamide]
EC50: 1000 to 2000 nM

O=C(COc1ccc(Cl)c(F)c1)NC12CC(Nc3nccc(-c4cnn(C(F)F)c4)n3)(C1)C2 [Compound 382, 2-(4-chloro-3-fluorophenoxy)-N-[3-({4-[1-(difluoromethyl)-1H-pyrazol-4-yl]pyrimidin-2-yl}amino)bicyclo[1.1.1]pentan-1-yl]acetamide]
EC50: > 2000 nM

CCOc1cc(C)nc(NC23CC(NC(=O)COc4ccc(Cl)c(F)c4)(C2)C3)n1 [Compound 383, 2-(4-chloro-3-fluorophenoxy)-N-{3-[(4-ethoxy-6-methylpyrimidin-2-yl)amino]bicyclo[1.1.1]pentan-1-yl}acetamide]
EC50: > 2000 nM

O=C(COc1ccc(Cl)c(F)c1)NC12CC(Nc3ccnc4cc(Cl)ccc34)(C1)C2 [Compound 384, 2-(4-chloro-3-fluorophenoxy)-N-{3-[(7-chloroquinolin-4-yl)amino]bicyclo[1.1.1]pentan-1-yl}acetamide]
EC50: < 50 nM

O=C(COc1ccc(C(F)(F)F)nc1)NC12CC(Nc3ccnc4cc(Cl)ccc34)(C1)C2 [Compound 385, N-{3-[(7-chloroquinolin-4-yl)amino]bicyclo[1.1.1]pentan-1-yl}-2-{[6-(trifluoromethyl)pyridin-3-yl]oxy}acetamide]
EC50: 250 to 1000 nM

CC(C)(O)c1cccc(C(=O)NC23CC(NC(=O)COc4ccc(Cl)c(F)c4)(C2)C3)c1 [Compound 386, N-{3-[2-(4-chloro-3-fluorophenoxy)acetamido]bicyclo[1.1.1]pentan-1-yl}-3-(2-hydroxypropan-2-yl)benzamide]
EC50: > 2000 nM

O=C(COc1ccc(Cl)c(F)c1)NC12CC(NC(=O)c3ccc4c(c3)OCCO4)(C1)C2 [Compound 387, N-{3-[2-(4-chloro-3-fluorophenoxy)acetamido]bicyclo[1.1.1]pentan-1-yl}-2,3-dihydro-1,4-benzodioxine-6-carboxamide]
EC50: 50 to 250 nM

Cn1nccc1C(=O)NC12CC(NC(=O)COc3ccc(Cl)c(F)c3)(C1)C2 [Compound 388, N-{3-[2-(4-chloro-3-fluorophenoxy)acetamido]bicyclo[1.1.1]pentan-1-yl}-1-methyl-1H-pyrazole-5-carboxamide]
EC50: 250 to 1000 nM

Cn1ccc(C(=O)NC23CC(NC(=O)COc4ccc(Cl)c(F)c4)(C2)C3)n1 [Compound 389, N-{3-[2-(4-chloro-3-fluorophenoxy)acetamido]bicyclo[1.1.1]pentan-1-yl}-1-methyl-1H-pyrazole-3-carboxamide]
EC50: 250 to 1000 nM

O=C(COc1ccc(Cl)c(F)c1)NC12CC(NC(=O)c3cc(NC4CC4)ccn3)(C1)C2 [Compound 390, N-{3-[2-(4-chloro-3-fluorophenoxy)acetamido]bicyclo[1.1.1]pentan-1-yl}-4-(cyclopropylamino)pyridine-2-carboxamide]
EC50: 1000 to 2000 nM

O=C(COc1ccc(Cl)c(F)c1)NC12CC(NC(=O)c3cc(CNC(=O)C4CC4)ccn3)(C1)C2 [Compound 391, N-{3-[2-(4-chloro-3-fluorophenoxy)acetamido]bicyclo[1.1.1]pentan-1-yl}-4-{[(cyclopropanecarbonyl)amino]methyl}pyridine-2-carboxamide]
EC50: 250 to 1000 nM

O=C(COc1ccc(Cl)c(F)c1)NC12CC(NC(=O)c3cc(-c4ccc(Cl)cc4)no3)(C1)C2 [Compound 392, N-{3-[2-(4-chloro-3-fluorophenoxy)acetamido]bicyclo[1.1.1]pentan-1-yl}-3-(4-chlorophenyl)-1,2-oxazole-5-carboxamide]
EC50: < 50 nM

Cc1nnc(NC23CC(NC(=O)COc4ccc(Cl)c(F)c4)(C2)C3)o1 [Compound 393, 2-(4-chloro-3-fluorophenoxy)-N-{3-[(5-methyl-1,3,4-oxadiazol-2-yl)amino]bicyclo[1.1.1]pentan-1-yl}acetamide]
EC50: > 2000 nM

Cc1cc2c(NC34CC(NC(=O)COc5ccc(Cl)c(F)c5)(C3)C4)nccn2n1 [Compound 394, 2-(4-chloro-3-fluorophenoxy)-N-{3-[(2-methylpyrazolo[1,5-a]pyrazin-4-yl)amino]bicyclo[1.1.1]pentan-1-yl}acetamide]
EC50: < 50 nM

O=C(COc1ccc(Cl)c(F)c1)NC12CC(Nc3cncc(-c4ccc(Cl)cc4)n3)(C1)C2 [Compound 395, 2-(4-chloro-3-fluorophenoxy)-N-(3-{[6-(4-chlorophenyl)pyrazin-2-yl]amino}bicyclo[1.1.1]pentan-1-yl)acetamide]
EC50: > 2000 nM

O=C(COc1ccc(Cl)c(F)c1)NC12CC(NC(=O)c3ccc4oc(=O)ccc4c3)(C1)C2 [Compound 396, N-{3-[2-(4-chloro-3-fluorophenoxy)acetamido]bicyclo[1.1.1]pentan-1-yl}-2-oxo-2H-1-benzopyran-6-carboxamide]
EC50: 250 to 1000 nM

COc1ccccc1-c1cc(C(=O)NC23CCC(NC(=O)COc4ccc(Cl)c(F)c4)(CC2)C(O)C3)on1 (centres unmarked) [Compound 397, N-{4-[2-(4-chloro-3-fluorophenoxy)acetamido]-3-hydroxybicyclo[2.2.2]octan-1-yl}-3-(2-methoxyphenyl)-1,2-oxazole-5-carboxamide]
EC50: 50 to 250 nM

O=C(COc1ccc(Cl)c(F)c1)NC12CC(Nc3cccc(-c4ccc(Cl)cc4)n3)(C1)C2 [Compound 398, 2-(4-chloro-3-fluorophenoxy)-N-(3-{[6-(4-chlorophenyl)pyridin-2-yl]amino}bicyclo[1.1.1]pentan-1-yl)acetamide]
EC50: > 2000 nM

CCc1cc(C(=O)NC23CC(NC(=O)COc4ccc5c(c4)OC(F)(F)O5)(C2)C3)n(C)n1 [Compound 399, N-(3-{2-[(2,2-difluoro-2H-1,3-benzodioxol-5-yl)oxy]acetamido}bicyclo[1.1.1]pentan-1-yl)-3-ethyl-1-methyl-1H-pyrazole-5-carboxamide]
EC50: 250 to 1000 nM
